# According to ChEMBL document CHEMBL1201862, “PubChem BioAssay data set” (2004):
#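 Grown in 96-well plates, cells were treated for 48 hours with each compound at five concentrations. Insufficient inhibition: endpoint recorded as highest concentration tested. The concentration for 50% growth inhibition is given as GI50.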 Active and inactive are the calls of the source. Cut-off read from the data, not from the text of the source: active = GI50 up to about 1.1 µM and inactive = higher.
# Legend:
# Experiment in all cases: DTP human tumour cell line panel, 48 h
# RXF 393 = test system: RXF 393
# COLO 205 = test system: COLO 205
# CAKI-1 = test system: CAKI-1
# K562 = test system: K562
# NCI-H23 = test system: NCI-H23
# 786-0 = test system: 786-0
# UO-31 = test system: UO-31
# SK-MEL-28 = test system: SK-MEL-28
# SW-620 = test system: SW-620
# LOX IMVI = test system: LOX IMVI
# HOP-92 = test system: HOP-92
# MOLT-4 = test system: MOLT-4
# SNB-75 = test system: SNB-75
# SF-539 = test system: SF-539
# HL-60 = test system: HL-60
# T47D = test system: T47D
# OVCAR-3 = test system: OVCAR-3
# NCI/ADR-RES = test system: NCI/ADR-RES
# MDA-N = test system: MDA-N
# MDA-MB-231 = test system: MDA-MB-231
Structure (SMILES),GI50 (RXF 393),GI50 (COLO 205),GI50 (CAKI-1),GI50 (K562),GI50 (NCI-H23),GI50 (786-0),GI50 (UO-31),GI50 (SK-MEL-28),GI50 (SW-620),GI50 (LOX IMVI),GI50 (HOP-92),GI50 (MOLT-4),GI50 (SNB-75),GI50 (SF-539),GI50 (HL-60),GI50 (T47D),GI50 (OVCAR-3),GI50 (NCI/ADR-RES),GI50 (MDA-N),GI50 (MDA-MB-231)
CC(C)(C)OC(=O)NCCCC(=O)NC1(c2cc3ccccc3s2)CCCCC1,9.42 µM (inactive),13.8 µM (inactive),22.1 µM (inactive),19.5 µM (inactive),27.2 µM (inactive),16.9 µM (inactive),4.61 µM (inactive),14.1 µM (inactive),15.8 µM (inactive),16 µM (inactive),12.9 µM (inactive),14.6 µM (inactive),5.11 µM (inactive),15.5 µM (inactive),6.76 µM (inactive),9.66 µM (inactive),16.3 µM (inactive),16.7 µM (inactive),15.8 µM (inactive),–
O=C(/C=C\c1ccccc1)Oc1ccc(/C=C2\CCCCC2=O)cc1,–,19.9 µM (inactive),24.3 µM (inactive),–,45.8 µM (inactive),37.4 µM (inactive),64.7 µM (inactive),2.18 µM (inactive),40.3 µM (inactive),60.4 µM (inactive),69 µM (inactive),0.955 µM (active),> 100 µM (inactive),28.7 µM (inactive),14.9 µM (inactive),92.5 µM (inactive),72.3 µM (inactive),–,33.3 µM (inactive),41.6 µM (inactive)
COc1ccc(OCC(=N/NC(=O)c2ccncc2)/N=C/c2cccnc2)cc1,35.8 µM (inactive),64.6 µM (inactive),> 100 µM (inactive),44.7 µM (inactive),> 100 µM (inactive),> 100 µM (inactive),–,94.8 µM (inactive),53.1 µM (inactive),89.7 µM (inactive),–,69.8 µM (inactive),24.2 µM (inactive),64.3 µM (inactive),> 100 µM (inactive),> 100 µM (inactive),65.8 µM (inactive),> 100 µM (inactive),17 µM (inactive),> 100 µM (inactive)
COc1ccc(-c2coc3cc(O)ccc3c2=O)cc1 [FORMONONETIN],–,> 100 µM (inactive),> 100 µM (inactive),> 100 µM (inactive),> 100 µM (inactive),> 100 µM (inactive),90.6 µM (inactive),> 100 µM (inactive),> 100 µM (inactive),–,–,> 100 µM (inactive),> 100 µM (inactive),> 100 µM (inactive),> 100 µM (inactive),> 100 µM (inactive),> 100 µM (inactive),> 100 µM (inactive),> 100 µM (inactive),11.3 µM (inactive)
C=C(C)[C@]12CC(C)C34OC(/C=C\C=C\CCCCCCCCC)(O[C@@H]1[C@@H]3[C@@H]1O[C@]1(CO)[C@@H](O)[C@]1(O)C(=O)C(C)=C[C@@H]41)O2 (stereo partly specified),14.8 µM (inactive),0.0001 µM (active),–,0.0103 µM (active),14.4 µM (inactive),6.35 µM (inactive),11.2 µM (inactive),12.1 µM (inactive),–,0.026 µM (active),–,2.14 µM (inactive),5.07 µM (inactive),0.01 µM (active),0.0103 µM (active),11.9 µM (inactive),6.41 µM (inactive),18.5 µM (inactive),0.01 µM (active),0.01 µM (active)
CC1=CC=C2c3ccccc3C=CN2C(=O)C1,–,42.5 µM (inactive),56.5 µM (inactive),37.8 µM (inactive),61.9 µM (inactive),60.7 µM (inactive),30.9 µM (inactive),90.4 µM (inactive),49.8 µM (inactive),40.9 µM (inactive),–,25.6 µM (inactive),38.4 µM (inactive),73.8 µM (inactive),16.9 µM (inactive),32.4 µM (inactive),95.3 µM (inactive),38.7 µM (inactive),37.2 µM (inactive),40.5 µM (inactive)
CN1C/C(=C\c2cccs2)C2=NN(c3ccccc3)C(c3cccs3)C2C1 (stereo unspecified),–,5.16 µM (inactive),> 72.9 µM (inactive),3.96 µM (inactive),> 100 µM (inactive),3.49 µM (inactive),50 µM (inactive),> 100 µM (inactive),4.6 µM (inactive),5.08 µM (inactive),–,3.4 µM (inactive),–,17.4 µM (inactive),1.59 µM (inactive),76 µM (inactive),2.79 µM (inactive),3.77 µM (inactive),1.59 µM (inactive),21.9 µM (inactive)
CN1C=Cc2nccc3cc4c(c1c23)OCO4,0.879 µM (active),3.18 µM (inactive),0.986 µM (active),1.89 µM (inactive),2.1 µM (inactive),1.61 µM (inactive),2.96 µM (inactive),4.83 µM (inactive),3.64 µM (inactive),6.25 µM (inactive),–,0.647 µM (active),1.49 µM (inactive),–,> 20.3 µM (inactive),6.82 µM (inactive),5.53 µM (inactive),11.9 µM (inactive),2.27 µM (inactive),3.08 µM (inactive)
O=C1c2ccccc2C2(c3ccc(Cl)cc3)N[C@@H]3CCCC[C@@H]3N12 (stereo partly specified),> 100 µM (inactive),> 100 µM (inactive),> 100 µM (inactive),> 100 µM (inactive),> 100 µM (inactive),> 100 µM (inactive),> 100 µM (inactive),> 100 µM (inactive),> 100 µM (inactive),> 100 µM (inactive),> 100 µM (inactive),> 100 µM (inactive),> 100 µM (inactive),> 100 µM (inactive),50.1 µM (inactive),> 100 µM (inactive),> 100 µM (inactive),–,> 100 µM (inactive),> 100 µM (inactive)
CC(NC(=O)C1(N)CCCC1)C(=O)O (stereo unspecified),> 100 µM (inactive),> 100 µM (inactive),> 100 µM (inactive),> 100 µM (inactive),> 100 µM (inactive),> 100 µM (inactive),> 100 µM (inactive),> 100 µM (inactive),> 100 µM (inactive),> 100 µM (inactive),–,> 100 µM (inactive),> 100 µM (inactive),–,> 100 µM (inactive),> 100 µM (inactive),> 100 µM (inactive),> 100 µM (inactive),> 100 µM (inactive),> 100 µM (inactive)
O=C(c1ccco1)N1CCCN(C(=O)c2ccco2)C1=S,39.6 µM (inactive),> 100 µM (inactive),> 100 µM (inactive),> 100 µM (inactive),> 100 µM (inactive),> 100 µM (inactive),> 100 µM (inactive),> 100 µM (inactive),> 100 µM (inactive),> 100 µM (inactive),–,> 100 µM (inactive),–,29.4 µM (inactive),> 100 µM (inactive),7.35 µM (inactive),> 100 µM (inactive),> 100 µM (inactive),> 100 µM (inactive),> 100 µM (inactive)
